One experiment has as its target HLA-A*0206 (Homo sapiens, UniProt P04439, D140Y/D185E/D98H/E176V/E277Q/F33Y/G131W/G231S/I119V/I121R/I166T/I218V/L300P/L318F/N151K/N90K/P208A/P217A/Q86G/Q94H/R138H/R169H/T345S). The experiment is described as follows: Purified HLA class I peptide binding assay, A*0206. The note with it: binding affinity, A2 supermotif peptides and analogs.
The target of a further experiment is HLA-A*6802 (Homo sapiens, UniProt P04439, A269V/D140Y/D185E/E176V/E277Q/E87N/F33Y/G231S/I121R/I166T/I218V/L180W/L300P/L318F/N151K/P208A/P217A/Q86R/R138H/R169H/S129P/T345S/V36M). The experiment in a line: Purified HLA class I peptide binding assay, A*6802. The following applies: binding affinity, A2 supermotif peptides and analogs.
The next experiment addresses HLA-A*0201 (Homo sapiens, UniProt P04439, D140Y/D185E/D98H/E176V/E277Q/G131W/G231S/I119V/I121R/I166T/I218V/L300P/L318F/N151K/N90K/P208A/P217A/Q86G/Q94H/R138H/R169H/T345S). The experiment in a line: Purified HLA class I peptide binding assay, A*0201. The note with it: binding affinity, A2 supermotif peptides and analogs.
Another experiment deals with HLA-A*0202 (Homo sapiens, UniProt P04439, D140Y/D185E/D98H/E176V/E277Q/G131W/G231S/I119L/I121R/I166T/I218V/L180W/L300P/L318F/N151K/N90K/P208A/P217A/Q67R/Q86G/Q94H/R138H/R169H/T345S). The experiment is described as follows: Purified HLA class I peptide binding assay, A*0202. The note with it: binding affinity, A2 supermotif peptides and analogs.
The next experiment concerns the target HLA-A*0203 (Homo sapiens, UniProt P04439, A173T/D140Y/D185E/D98H/E277Q/G131W/G231S/I119V/I121R/I166T/I218V/L180W/L300P/L318F/N151K/N90K/P208A/P217A/Q86G/Q94H/R138H/R169H/T345S). The experiment is described as follows: Purified HLA class I peptide binding assay, A*0203. The note with it: binding affinity, A2 supermotif peptides and analogs.
The target in a further experiment is HLA-A*1101 (Homo sapiens, UniProt P04439, A114D/D185E/E176A/F33Y/L180Q/S129P/T187R). The experiment is described as follows: Purified HLA class I peptide binding assay, A*1101. The note with it: binding affinity, HLA-A3 supermotif-bearing peptides.
The next experiment concerns the target HLA-A*6801 (Homo sapiens, UniProt P04439, A269V/D185E/E176V/E277Q/E87N/F33Y/G231S/I121M/I166T/I218V/L180W/L300P/L318F/N151K/P208A/P217A/Q86R/R169H/T345S). The experiment in a line: Purified HLA class I peptide binding assay, A*6801. The note with it: binding affinity, HLA-A3 supermotif-bearing peptides.
The target of a further experiment is HLA-A*3101 (Homo sapiens, UniProt P04439, A270S/D185E/E176V/E277Q/F33T/G231S/G80R/H175R/I121M/I218V/I322F/K168Q/L300P/L318F/M331R/P217A/Q94H/R138Q/T323A/T345S/T97I/V358M). The experiment in a line: Purified HLA class I peptide binding assay, A*3101. The note with it: binding affinity, HLA-A3 supermotif-bearing peptides.
For a further experiment, the target named is HLA-A*0301 (Homo sapiens, UniProt P04439). The experiment in a line: Purified HLA class I peptide binding assay, A*0301. The following applies: binding affinity, HLA-A3 supermotif-bearing peptides.
In another experiment the target is HLA-A*3301 (Homo sapiens, UniProt P04439, A270S/D185E/E176V/E277Q/E87N/F33T/G231S/H175R/I121M/I218V/I322F/K168Q/K210R/L300P/L318F/M331R/P217A/Q86R/Q94H/R138Q/T323A/T345S/T97I/V358M/Y195H). The experiment in a line: Purified HLA class I peptide binding assay, A*3301. The following applies: binding affinity, HLA-A3 supermotif-bearing peptides.
In experiment [1] the test system is peptide-specific CTL from PBMC. The experiment in a line: CTL immunogenicity of A3, B7 supermotif and A1, A24 motif peptides (methodology analogous to A2). The note with it: positive/tested. The experiment is classed as cell-based, human.
Method: HLA-A3 supermotif-bearing cross-reactive binding peptides are also evaluated for immunogenicity using methodology analogous for that used to evaluate the immunogenicity of the HLA-A2 supermotif peptides.
Analogous methodology, as appreciated by one of ordinary skill in the art, is employed to determine immunogenicity of peptides bearing HLA class I motifs and/or supermotifs set out herein.
Another experiment deals with HLA-DRB1*0401 (DR4w4) (Homo sapiens, UniProt P01903+P01911, A100K/A169T/F76Y/I96L/K127E/L162R/M171V/N62H/P40V/Q125Y/R42H/S133A/S149N/S66Y/V115G/V209L/W38E). The experiment in a line: Purified HLA class II peptide binding assay, DRB1*0401.

SMILES strings stand for the structures.

A word on the IC50: it is the concentration at which inhibition is half-maximal. A low value points to greater potency. On to `CSCC[C@H](NC(=O)[C@@H](N)CCCCN)C(=O)N[C@@H](C)C(=O)N[C@@H](CCC(=O)O)C(=O)N[C@@H](CC(C)C)C(=O)N[C@H](C(=O)N[C@@H](Cc1c[nH]cn1)C(=O)N[C@@H](Cc1ccccc1)C(=O)N[C@H](C(=O)O)C(C)C)C(C)C`, for which the IC50 on HLA-A*0206 turned out to be 39 nM; at HLA-A*6802 it was 170 nM; at HLA-A*0201 it was 26 nM.

Take `CC(C)C[C@H](NC(=O)[C@H](CCC(=O)O)NC(=O)[C@H](C)NC(=O)[C@H](CC(C)C)NC(=O)[C@@H](N)CCCCN)C(=O)N[C@H](C(=O)N[C@@H](Cc1c[nH]cn1)C(=O)N[C@@H](Cc1ccccc1)C(=O)N[C@H](C(=O)O)C(C)C)C(C)C`: the IC50 worked out at 15 nM on HLA-A*0206, 73 nM at HLA-A*6802, 13 nM on HLA-A*0202 and 22 nM on HLA-A*0203.

As for `CC[C@H](C)[C@H](NC(=O)[C@H](Cc1ccc(O)cc1)NC(=O)[C@H](CC(C)C)NC(=O)[C@@H](N)Cc1c[nH]cn1)C(=O)N[C@@H](Cc1ccccc1)C(=O)N[C@@H](C)C(=O)N[C@H](C(=O)N[C@@H](CS)C(=O)N[C@@H](CC(C)C)C(=O)NCC(=O)N[C@@H](CC(C)C)C(=O)O)[C@@H](C)O`, the IC50 was more than 10000 nM at HLA-A*0206, 4490 nM at HLA-A*6802, 769 nM on HLA-A*0203 and 56 nM at HLA-A*0201.

Take `CC[C@H](C)[C@H](NC(=O)[C@H](CC(C)C)NC(=O)[C@H](C)N)C(=O)N[C@@H](CCC(=O)O)C(=O)N[C@H](C(=O)N[C@@H](CO)C(=O)N[C@@H](Cc1ccc(O)cc1)C(=O)N[C@H](C(=O)N[C@@H](CCCCN)C(=O)O)C(C)C)[C@@H](C)O`: the IC50 at HLA-A*1101 is 32 nM; on HLA-A*6801, 286 nM; on HLA-A*3101, 900 nM; on HLA-A*0301 it was 136 nM; at HLA-A*3301 it was more than 10000 nM.

As to `CC[C@H](C)[C@H](NC(=O)[C@@H](NC(=O)[C@@H](N)[C@@H](C)O)[C@@H](C)O)C(=O)N[C@@H](CC(N)=O)C(=O)N[C@@H](Cc1ccc(O)cc1)C(=O)N[C@H](C(=O)N[C@@H](CC(C)C)C(=O)N[C@@H](Cc1c[nH]c2ccccc12)C(=O)N[C@@H](CCCNC(=N)N)C(=O)O)[C@@H](C)O`, the “CTL Tumor” value in experiment [1] (CTL recognition of tumor targets) is 2/5. For the same molecule, the “CTL Wild-type” value in [1] (CTL recognition of wild-type peptide) was 7/7.

In the case of `CSCC[C@H](NC(=O)[C@@H](N)CCCCN)C(=O)N[C@@H](C)C(=O)N[C@@H](CCC(=O)O)C(=O)N[C@@H](CC(C)C)C(=O)N[C@H](C(=O)N[C@@H](Cc1c[nH]cn1)C(=O)N[C@@H](Cc1ccccc1)C(=O)N[C@@H](CC(C)C)C(=O)O)C(C)C`, the concentration for half-maximal inhibition (IC50) at HLA-A*0206 came to 26 nM; at HLA-A*6802 it was 286 nM; on HLA-A*0202, 6.7 nM; on HLA-A*0201, 24 nM.

Consider `CC[C@H](C)[C@H](NC(=O)[C@H](CC(C)C)NC(=O)[C@H](C)N)C(=O)N[C@@H](CCC(=O)O)C(=O)N[C@H](C(=O)N[C@@H](CO)C(=O)N[C@@H](Cc1ccc(O)cc1)C(=O)N[C@H](C(=O)N[C@@H](CCCCN)C(=O)N[C@H](C(=O)O)C(C)C)C(C)C)[C@@H](C)O`, for which the IC50 came out at 1950 nM at HLA-A*0206, 3080 nM at HLA-A*6802, 729 nM at HLA-A*0202 and 125 nM at HLA-A*0203.

With `CC[C@H](C)[C@H](NC(=O)[C@H](C)NC(=O)[C@@H](NC(=O)[C@@H](NC(=O)[C@H](C)NC(=O)[C@H](CC(C)C)NC(=O)[C@@H](NC(=O)[C@@H](NC(=O)[C@@H](NC(=O)[C@H](CC(C)C)NC(=O)[C@@H](N)CC(C)C)[C@@H](C)CC)[C@@H](C)CC)C(C)C)[C@@H](C)CC)[C@@H](C)CC)C(=O)N[C@@H](CCC(=O)O)C(=O)NCC(=O)N[C@@H](CC(=O)O)C(=O)N[C@@H](CS)C(=O)O`, the IC50 on HLA-DRB1*0401 (DR4w4) was determined as 3750 nM.

For `CC(C)C[C@H](NC(=O)[C@H](Cc1ccccc1)NC(=O)[C@H](Cc1c[nH]cn1)NC(=O)[C@@H](NC(=O)[C@H](CC(C)C)NC(=O)[C@H](CCC(=O)O)NC(=O)[C@H](C)NC(=O)[C@H](CC(C)C)NC(=O)[C@@H](N)CCCCN)C(C)C)C(=O)O`, the half-maximal inhibitory concentration (IC50) at HLA-A*6802 is 400 nM; on HLA-A*0202 it was 6 nM; on HLA-A*0203, 5.9 nM; on HLA-A*0201, 20 nM.

Source of the values: patent publication US20040053822A1, “Inducing cellular immune responses to mage2/3 using peptide and nucleic acid compositions” (priority 2002, published 2004).
